Test: xn = mol fraction of the nth substance listed
Settings: Liquid, Vibrating tube method

CCCCCCCCCC [decane] + O=C=O
Settings | mass density [kg/m3]
352.78 K, 12025 kPa, x2 = 0.0551 | 697.67
352.78 K, 13009 kPa, x2 = 0.0551 | 698.59
352.78 K, 14003 kPa, x2 = 0.0551 | 699.6
352.78 K, 15017 kPa, x2 = 0.0551 | 700.5
352.78 K, 16009 kPa, x2 = 0.0551 | 701.58
352.78 K, 17043 kPa, x2 = 0.0551 | 702.49
352.78 K, 18011 kPa, x2 = 0.0551 | 703.38
352.78 K, 18999 kPa, x2 = 0.0551 | 704.26
352.78 K, 19980 kPa, x2 = 0.0551 | 705.14
352.78 K, 21012 kPa, x2 = 0.0551 | 706.06
352.78 K, 22017 kPa, x2 = 0.0551 | 706.96
352.78 K, 23034 kPa, x2 = 0.0551 | 707.84
352.78 K, 24044 kPa, x2 = 0.0551 | 708.75
352.78 K, 24991 kPa, x2 = 0.0551 | 709.57
352.79 K, 6023 kPa, x2 = 0.2369 | 695.17
352.79 K, 7016 kPa, x2 = 0.2369 | 696.39
352.79 K, 8017 kPa, x2 = 0.2369 | 697.7
352.79 K, 9014 kPa, x2 = 0.2369 | 698.95
352.79 K, 10006 kPa, x2 = 0.2369 | 700.1
352.79 K, 11019 kPa, x2 = 0.2369 | 701.32
352.79 K, 12015 kPa, x2 = 0.2369 | 702.48
352.79 K, 13014 kPa, x2 = 0.2369 | 703.71
352.79 K, 14010 kPa, x2 = 0.2369 | 704.77
352.79 K, 15002 kPa, x2 = 0.2369 | 705.93
352.79 K, 16000 kPa, x2 = 0.2369 | 707.03
352.79 K, 17020 kPa, x2 = 0.2369 | 708.08
352.79 K, 18006 kPa, x2 = 0.2369 | 709.15
352.79 K, 19014 kPa, x2 = 0.2369 | 710.21
352.79 K, 19955 kPa, x2 = 0.2369 | 711.22
352.79 K, 21069 kPa, x2 = 0.2369 | 712.3
352.79 K, 22042 kPa, x2 = 0.2369 | 713.3
352.79 K, 23032 kPa, x2 = 0.2369 | 714.28
352.79 K, 24057 kPa, x2 = 0.2369 | 715.33
352.79 K, 24999 kPa, x2 = 0.2369 | 716.29
352.8 K, 8029 kPa, x2 = 0.4536 | 702.49
352.8 K, 9011 kPa, x2 = 0.4536 | 704.17
352.8 K, 10022 kPa, x2 = 0.4536 | 705.86
352.8 K, 11012 kPa, x2 = 0.4536 | 707.47
352.8 K, 12018 kPa, x2 = 0.4536 | 709.07
352.8 K, 13013 kPa, x2 = 0.4536 | 710.62
352.8 K, 14019 kPa, x2 = 0.4536 | 712.14
352.8 K, 15017 kPa, x2 = 0.4536 | 713.63
352.8 K, 16008 kPa, x2 = 0.4536 | 715.06
352.8 K, 17028 kPa, x2 = 0.4536 | 716.51
352.8 K, 18018 kPa, x2 = 0.4536 | 717.9
352.8 K, 19024 kPa, x2 = 0.4536 | 719.28
352.8 K, 20015 kPa, x2 = 0.4536 | 720.6
352.8 K, 21003 kPa, x2 = 0.4536 | 721.91
352.8 K, 22029 kPa, x2 = 0.4536 | 723.29
352.8 K, 23006 kPa, x2 = 0.4536 | 724.51
352.8 K, 24025 kPa, x2 = 0.4536 | 725.86
352.8 K, 25013 kPa, x2 = 0.4536 | 727.09
362.63 K, 15022 kPa, x2 = 0.8114 | 681.16
362.63 K, 16023 kPa, x2 = 0.8114 | 688.18
362.63 K, 17027 kPa, x2 = 0.8114 | 694.15
362.63 K, 18027 kPa, x2 = 0.8114 | 699.67
362.63 K, 19028 kPa, x2 = 0.8114 | 704.83
362.63 K, 20026 kPa, x2 = 0.8114 | 709.67
362.63 K, 21017 kPa, x2 = 0.8114 | 714.17
362.63 K, 22023 kPa, x2 = 0.8114 | 718.48
362.63 K, 23019 kPa, x2 = 0.8114 | 722.51
362.63 K, 24030 kPa, x2 = 0.8114 | 726.42
362.63 K, 25024 kPa, x2 = 0.8114 | 730.11
362.65 K, 5978 kPa, x2 = 0.2369 | 686.43
362.65 K, 7016 kPa, x2 = 0.2369 | 687.86
362.65 K, 8020 kPa, x2 = 0.2369 | 689.21
362.65 K, 9035 kPa, x2 = 0.2369 | 690.58
362.65 K, 10044 kPa, x2 = 0.2369 | 691.88
362.65 K, 11011 kPa, x2 = 0.2369 | 693.13
362.65 K, 12005 kPa, x2 = 0.2369 | 694.38
362.65 K, 13039 kPa, x2 = 0.2369 | 695.64
362.65 K, 14013 kPa, x2 = 0.2369 | 696.82
362.65 K, 15072 kPa, x2 = 0.2369 | 698.07
362.65 K, 15510 kPa, x2 = 0.9663 | 452.61
362.65 K, 16012 kPa, x2 = 0.2369 | 699.18
362.65 K, 16012 kPa, x2 = 0.9663 | 471.04
362.65 K, 17007 kPa, x2 = 0.9663 | 504.42
362.65 K, 17009 kPa, x2 = 0.2369 | 700.33
362.65 K, 18008 kPa, x2 = 0.2369 | 701.44
362.65 K, 18010 kPa, x2 = 0.9663 | 534.34
362.65 K, 19013 kPa, x2 = 0.9663 | 561.23
362.65 K, 19020 kPa, x2 = 0.2369 | 702.57
362.65 K, 20006 kPa, x2 = 0.2369 | 703.64
362.65 K, 20015 kPa, x2 = 0.9663 | 585.01
362.65 K, 21029 kPa, x2 = 0.9663 | 606.13
362.65 K, 21068 kPa, x2 = 0.2369 | 704.82
362.65 K, 22007 kPa, x2 = 0.2369 | 705.81
362.65 K, 22007 kPa, x2 = 0.9663 | 624.31
362.65 K, 23022 kPa, x2 = 0.9663 | 641.03
362.65 K, 23055 kPa, x2 = 0.2369 | 706.93
362.65 K, 24015 kPa, x2 = 0.9663 | 655.59
362.65 K, 24030 kPa, x2 = 0.2369 | 707.95
362.65 K, 25028 kPa, x2 = 0.9663 | 669.28
362.65 K, 25056 kPa, x2 = 0.2369 | 709.02
362.66 K, 2031 kPa, x2 = 0.0551 | 678.97
362.66 K, 3029 kPa, x2 = 0.0551 | 680.17
362.66 K, 4134 kPa, x2 = 0.0551 | 681.5
362.66 K, 5034 kPa, x2 = 0.0551 | 682.58
362.66 K, 6050 kPa, x2 = 0.0551 | 683.77
362.66 K, 7045 kPa, x2 = 0.0551 | 684.91
362.66 K, 8030 kPa, x2 = 0.0551 | 686.02
362.66 K, 9020 kPa, x2 = 0.0551 | 687.12
362.66 K, 9024 kPa, x2 = 0.4536 | 693.68
362.66 K, 10012 kPa, x2 = 0.4536 | 695.47
362.66 K, 10044 kPa, x2 = 0.0551 | 688.25
362.66 K, 11025 kPa, x2 = 0.0551 | 689.34
362.66 K, 11031 kPa, x2 = 0.4536 | 697.25
362.66 K, 11987 kPa, x2 = 0.0551 | 690.35
362.66 K, 12002 kPa, x2 = 0.4536 | 698.93
362.66 K, 13025 kPa, x2 = 0.0551 | 691.46
362.66 K, 13028 kPa, x2 = 0.4536 | 700.66
362.66 K, 14008 kPa, x2 = 0.4536 | 702.25
362.66 K, 14075 kPa, x2 = 0.0551 | 692.5
362.66 K, 15024 kPa, x2 = 0.4536 | 703.87
362.66 K, 15026 kPa, x2 = 0.0551 | 693.52
362.66 K, 16000 kPa, x2 = 0.4536 | 705.42
362.66 K, 16020 kPa, x2 = 0.0551 | 694.47
362.66 K, 17003 kPa, x2 = 0.0551 | 695.45
362.66 K, 17017 kPa, x2 = 0.4536 | 706.96
362.66 K, 18002 kPa, x2 = 0.4536 | 708.44
362.66 K, 18032 kPa, x2 = 0.0551 | 696.46
362.66 K, 19030 kPa, x2 = 0.0551 | 697.38
362.66 K, 19030 kPa, x2 = 0.4536 | 709.94
362.66 K, 19998 kPa, x2 = 0.0551 | 698.32
362.66 K, 20001 kPa, x2 = 0.4536 | 711.37
362.66 K, 21029 kPa, x2 = 0.4536 | 712.8
362.66 K, 21052 kPa, x2 = 0.0551 | 699.32
362.66 K, 22014 kPa, x2 = 0.4536 | 714.18
362.66 K, 22028 kPa, x2 = 0.0551 | 700.22
362.66 K, 22996 kPa, x2 = 0.0551 | 701.1
362.66 K, 23024 kPa, x2 = 0.4536 | 715.57
362.66 K, 24006 kPa, x2 = 0.4536 | 716.91
362.66 K, 24036 kPa, x2 = 0.0551 | 702.1
362.66 K, 25008 kPa, x2 = 0.0551 | 702.93
362.66 K, 25025 kPa, x2 = 0.4536 | 718.29

From the NIST ThermoML archive (doi:10.1021/je050020m)
